Experimental findings from patent US9888679B2, “Protection of progenitor cells and regulation of their differentiation” (Proteobioactives Pty Ltd, priority 2007, dated 2018) are described below.

“Also recorded” adds a separate entry of the source.

Holding throughout (format): cell-based
Test [1] relates to Normal Human MSCs. Description: Freeze/thaw viability of MSCs cryopreserved with PPS, trypan blue cell counts. On the procedure:
FIG. 1. The Effects of Pentosan Polysulfate (PPS) on Normal Human MSCs Freeze/Thaw Viabilities. MSCs were rapidly thawed in a 37° C. water bath and washed twice with HHF (HBSS containing 5% (v/v) Foetal Calf Serum). The cells were subsequently seeded into multiple T-75 flasks at 8,000 cells/cm^2. The cells were grown until 70-80% confluent, trypsinised and cryopreserved at cell concentrations of 50×10^6/ml in Profreeze®/7.5% DMSO supplemented with PPS at the indicated concentrations. Ampoules were retrieved from liquid nitrogen storage and rapidly thawed, gently mixed and 10 ul samples removed at time=0, 30, 60, 90 and 120 minutes. To each cell sample, 290 ul of trypan blue was added and cell counts/viability testing performed.
Cells were harvested and resuspended in cold serum free culture medium at 5.0 to 20.0×10^6 cells/ml. An equal volume of chilled complete Profreeze®-CDM medium was added to the chilled cell suspension containing 0, 10, 20, 50 and 100 micrograms/mL of PPS. The resulting final DMSO concentration was 7.5%, PPS concentration was 0, 5, 10, 25 and 50 micrograms/mL and the final cell concentration was approximately 2.5 to 10×10^6 cells/ml. The cell mixture was aliquoted into cryopreservation ampoules (Nunc, Intermed, Denmark) and cryopreserved in a C156 Freezing Container (Thermo Scientific, Melbourne, 21 Australia) at −80° C. for a −1° C./minute controlled cooling rate. The ampoules were then transferred to liquid nitrogen storage (−196° C.).
Cyropreserved cells were rapidly thawed for a minute in a 37° C. water bath and transferred to a 10 mL polypropylene tube. Approximately 3 mL of appropriate media was added dropwise to the cells with constant mixing, and made up to a final volume of 10 mL. Cells were pelleted by centrifugation at 400×g, 4° C. for 5 minutes and the supernatant aspirated. To ensure removal of residual DMSO, cells were washed in medium and centrifuged as above. Cells were resuspended in final volume of 10 mL and seeded in a 75 cm^2 flask prior to incubation in a humidified incubator at 37° C. in the presence of 5% CO2.
Aliquots of single-cell suspensions obtained after thawing progenitor cells from the PPS containing cryopreserved vials were diluted in an equal volume of 0.4% (w/v) trypan blue in phosphate buffered saline (PBS). The cell counts were determined using a haemocytometer (Neubauer Improved, Assistant, Germany) and a light microscope (Olympus CKX41, Japan).

In test [2] the test system is Murine ATDC5 cell line. Description: Proteoglycan biosynthesis (35S-GAG) in pellet cultures. Conditions: 2 micrograms/mL; 6 day pellet culture; FIG. 12. The source says: FIG. 12. A bar graph of the concentration dependent effects of Pentosan Polysulfate (PPS), on the biosynthesis of Proteoglycans (PGs) as determined by the incorporation of radioactively labelled sulfate into the sulfated glycosaminoglycans (^35S-GAG) of PGs in 6 day pellet cultures of murine progenitor cells (ADTC-5). *=p<0.05 relative to control.
FIG. 22. A bar graph of the concentration dependent effects of rhNC4 (batch PBA-1202P) expressed by K. lactis, in the absence (maintenance media, MM) and presence of insulin (10 micrograms/mL) (differentiation media, DM), on the biosynthesis of Proteoglycans PGs) in pellet cultures of ATDC5 cells. Data is shown as the % change relative to controls taken to be 100%.
Murine Progenitor cells (cell lines C3H10T1/2 or ATDC5) purchased from RIKEN Cell Bank (Tsukuba, Japan) or human immunoselected Stro-1+ Progenitor cells (Mesoblast Ltd, Melbourne, Australia) were seeded in 2 ml screw-capped sterile centrifuge tubes and the total volume made-up to 1 ml with DMEM-High glucose medium containing 10% FBS. Progenitor cells were then centrifuged at 500 g for 10 min in a swing-out rotor at room temperature. The screw caps were loosened and the tubes placed in an incubator at 37° C., in a 5% CO2/95% air moist atmosphere. The pellets generally formed within 24 hours. Medium was changed daily in the first two days, then once every 2-3 days thereafter. On day 5 the medium was removed and to each tube was added 1 ml with DMEM-High glucose medium containing 10% FBS, 5.0 μCi/ml ^35S-H2SO4 and various concentrations of PPS (0, 0.1, 0.5, 1.0, 2.5, 5.0, 10.0, 20.0, μg/ml) (FIG. 12-15) or rhNC4 (0, 0.1, 0.5, 1.0, 2.0 μg/ml) (FIG. 22). Triplicate cultures were used for all concentration of drugs. The screw caps were loosened and the tubes placed in an incubator at 37° C., in a 5% CO2/95% moist air atmosphere […]. On day 6, 200 μl of stock papain solution [2.5 mg/ml papain, 7.9 mg/ml L-Cystein in papain buffer (0.1 M NaAC, 5 mM EDTA, pH6.0)] was added to each tube. The tubes were tightly capped and incubated at 65° C. for 2 hours. After papain digestion, 4 replicates of 200 μl of papain digested solution were separately transferred to a 96-well micro-titre plate (200 μl/well). The remaining solution was used for the DNA fluorometric assays which were undertaken in triplicate as described above. Biosynthesis of ^35S-GAGs was determined as described for the monolayer cultures and the results expressed as ^35-S-GAGs/μg DNA.
Data is shown as the % of controls taken to be 100%.

Test [3] has as its system Murine MSC line C3H10T1/2. Description: Proteoglycan biosynthesis (35S-GAG) in 7 day pellet cultures. The note with it: 10 micrograms/mL; 7 day pellet culture; FIG. 15. From the text: FIG. 15. Bar graphs showing the concentration dependent effects of Pentosan Polysulfate (PPS), on the biosynthesis of Proteoglycans (PGs) as determined by the incorporation of radioactively labelled sulfate into the sulfated glycosaminoglycans (^35S-GAG) of PGs in 7 day pellet cultures of a murine progenitor cells (C3H10T1-2).
Murine Progenitor cells (cell lines C3H10T1/2 or ATDC5) purchased from RIKEN Cell Bank (Tsukuba, Japan) or human immunoselected Stro-1+ Progenitor cells (Mesoblast Ltd, Melbourne, Australia) were seeded in 2 ml screw-capped sterile centrifuge tubes and the total volume made-up to 1 ml with DMEM-High glucose medium containing 10% FBS. Progenitor cells were then centrifuged at 500 g for 10 min in a swing-out rotor at room temperature. The screw caps were loosened and the tubes placed in an incubator at 37° C., in a 5% CO2/95% air moist atmosphere. The pellets generally formed within 24 hours. Medium was changed daily in the first two days, then once every 2-3 days thereafter. […] Biosynthesis of ^35S-GAGs was determined as described for the monolayer cultures and the results expressed as ^35-S-GAGs/μg DNA.

For the substance pentosan polysulfate [PPS], the “cell viability after cryopreservation and thawing” value was “beneficial effect on viability at 60 minutes” in test [1] (5 μg/ml PPS); “beneficial effect at time point 0 and then at 60 and 90 minutes” in test [1] (10 μg/ml PPS); “either enhanced the viability or did not adversely affect the viability” in test [1] (25 μg/ml PPS, all time points instead of 30 minutes); “enhanced the viability of the progenitor cells at all time points” in test [1] (50 μg/ml PPS, with the exception of 30 minutes); “did not adversely affect cell viability; also recorded: did not have an adverse effect on the cryopreservation; also recorded: did not have an adverse effect and may enhance the cryopreservation of progenitor cells” in test [1] (Profreeze/7.5% DMSO with PPS 5-50 μg/ml, 0-120 min after thawing, FIG. 1); “no detrimental effect on their viability” in test [1] (Profreeze/7.5% DMSO with PPS 5-50 μg/ml, 0-120 min after thawing, FIG. 1, listed as polysulfated polysaccharides). In addition, the “increase of proteoglycan (PG) synthesis relative to control culture” value in test [2] is 25%. Further, in test [3], the “increase of proteoglycan synthesis, of the control values” was “more than 80%”.
